The results in this text go back to patent EP0983055B1, “COMPOSITION COMPRISING AN AMINO ACID N-UNDECYLENOYL; APPLICATION IN COSMETICS” (SOCIETE D'EXPLOITATION DE PRODUITS POUR LES INDUSTRIES …, priority 1997, dated 1999).

The test system of one experiment is Aspergillus Niger. Briefly: MIC (CMI) determination in liquid medium. It counts as cell-based. To be noted: pH5, substance alone, 72 h incubation at 30°C. Here is the method: (§1) On a déterminé les CMI en milieu liquide, avec un temps d'incubation de 72 heures à 30°C, à […] (bouillon Trypticase soja tamponné), du Lipacide™ UG seul, du conservateur testé seul, ainsi que du mélange des deux produits La comparaison des résultats consignés dans les tableaux suivants fait apparaître nettement une synergie anti-microbienne qui autorise ainsi une réduction de la concentration nécessaires en conservateurs chimique dans les compositions.
(§2) La composition A est diluée dans l'eau pour obtenir la composition A2 contenant 0,05 % en poids d'undécylènoyl glycine et 0,05 % en poids d'octanoyl glycine et la composition A3 contenant 0,125 % en poids d'undécylènoyl glycine et 0,125 % en poids d'octanoyl glycine.
(§3) On obtient les résultats suivants (CMI à pH5).

The next experiment deals with Staph. aureus. The experiment is described as follows: MIC (CMI) determination in liquid medium. It counts as cell-based. To be noted: pH5, substance alone, 72 h incubation at 30°C. On the procedure:
as §1, §2, §3

As to `CCCCCCCC(=O)NCC(=O)O` [octanoyl glycine], the figures for the CMI in the experiment with Aspergillus Niger and in the experiment on Staph. aureus were 2,5% and 0,025%, respectively.
Taken in the same sequence, the figures for `C=CCCCCCCCCC(=O)NCC(=O)O` [undécylènoyl glycine] were 0,25% and 0,01%.
